US20240190889A1, “NEW CYCLOPENTA-THIENO-DIAZEPINE DERIVATIVES AS GABA A GAMMA1 POSITIVE ALLOSTERIC MODULATORS” (Hoffmann-La Roche Inc., priority 2021, published 2024)
Where two headings read alike, the source gives them in different places.

Legend:
[1] = target: human GABAA α5β2γ1 receptor (Homo sapiens (Human), UniProt P31644+Q8N1C3); assay: Radioligand binding assay, competition for [3H]RO7239181, γ1-containing GABAA subtypes; settings: membranes from HEK293F cells, mean of two determinations
Description: Membrane Preparation and Binding Assay for γ1-containing GABAA Subtypes
The affinity of compounds at GABAA γ1 subunit-containing receptors was measured by competition for [^3H]RO7239181 (67.3 Ci/mmol: Roche) binding to membranes from HEK293F cells (ThermoFisher R79007) expressing human (transiently transfected) receptors of composition α5β2γ1, α2β2γ1, α1β2γ1. For better protein expression of the α2 subunit-containing receptors, the 28 amino acid long signal peptide (Metl to Ala28) of the human GABAA α2 subunit was substituted by the 31 amino acid long signal peptide (Met1 to Ser31) of human GABAA α5 subunit.
Harvested pellets from HEK293F cells expressing the different GABAA receptor subtypes were resuspended in Mannitol Buffer pH 7.2-7.4 (Mannitol 0.29 M, Tricthylamine 10 mM. Acetic acid 10 mM. EDTA 1 mM plus protease inhibitors (20 tablets Complete. Roche Diagnostics Cat. No. 05 056 489 001 per liter)), washed two times and then resuspended at 1:10 to 1:15 dilution in the same buffer. Cell disruption was performed by stirring the suspension in a Parr vessel #4637 at 435 psi for 15 minutes, and then the suspensions were centrifuged at 1000×g for 15 minutes at 4° C. (Beckman Avanti J-HC: rotor JS-4.2). The supernatant (S1) was transferred in a 21 Schott flask and the pellet (P1) was resuspended with Mannitol Buffer up to 175 ml. The resuspended pellet was transferred into a 250 ml Corning centrifugal beaker and centrifuged at 1500 ×g for 10 minutes at 4° C. (Beckman Avanti J-HC: rotor JS-4.2). The supernatant (S1) was then transferred in the 21 Schott flask and the pellet was discarded. The supernatants (S1) were centrifuged in 500ml Beckman polypropylene centrifugal beaker at 15 000×g for 30 minutes at 4° C. (Beckman Avanti J-20 XP; rotor JLA-10.500). The pellet (P2) was resuspended with Mannitol Buffer 1:1 and frozen at −80° C. The supernatant (S2) was centrifuged in 100 ml Beckman polypropylene centrifugal tubes at 48000×g for 50 minutes at 4 °C (Beckman Avanti J-20 XP: rotor JA-18). The supernatant (S3) was discarded and the pellet (P3) was resuspended with 1:1 Mannitol Buffer. The P2 and P3 protein concentration was determined with the BIORAD Standard assay method with bovine serum albumin as standard and measured on the NANO-Drop 1000. The membrane suspension was aliquots (500μl per tube) and stored at −80° C. until required.
Membrane homogenates were resuspended and polytronised (Polytron PT1200E Kinematica AG) in Potassium Phosphate 10 mM, KCl 100 mM binding buffer at pH 7.4 to a final assay concentration determined with a previous experiment.
Radioligand binding assays were carried out in a volume of 200 μL (96-well plates) which contained 100 μL of cell membranes. [^3H]RO7239181 at a concentration of 1.5 nM (α5β2γ1) or 20-30 nM (α1β2γ1, α2β2γ1) and the test compound in the range of [0.3-10000]33 10^−9 M. Nonspecific binding was defined by […] (α5β2γ1) and […] RO7239181 and typically represented less than 5% (α5β2γ1) and less than 20% (α1β2γ1, α2β2γ1) of the total binding. Assays were incubated to equilibrium for 1 hour at 4° C. and then, membranes were filtered onto unifilter (96-well white microplate with bonded GF/C filters preincubated 20-50 minutes in 0.3% Polyethylenimine) with a Filtermate 196 harvester (Packard BioScience) and washed 4 times with cold Potassium Phosphate 10 mM pH 7.4. KCl 100 mM binding buffer. After anhydrousing, filter-retained radioactivity was detected by liquid scintillation counting. Ki values were calculated using Excel-Fit (Microsoft) and are the means of two determinations.
Representative test results, obtained by the above described assay measuring binding affinity to HEK293 cells expressing human (h) receptors, are shown in the Table 1.

[2] = target: human GABAA α1β3γ2 receptor (Homo sapiens (Human), UniProt P14867+P18507); assay: Radioligand binding assay, competition for [3H]Flumazenil, γ2-containing GABAA subtypes; settings: for γ2/γ1 Selectivity Ratio: Ki α1β3γ2 (nM)/Ki α2β2γ1 (nM); for LogSel: Log[Ki α1β3γ2 (nM)/Ki α2β2γ1 (nM)]
Description: Membrane Preparation and Binding Assay for γ2-containing GABAA Subtypes
The affinity of compounds at GABAA γ2 subunit-containing receptors was measured by competition for [^3H]Flumazenil (81.1 Ci/mmol; Roche) binding to HEK293F cells expressing human (transiently transfected) receptors of composition α1β3γ2.
Harvested pellets from HEK293F cells expressing the different GABAA γ2 receptor subtypes were resuspended in Mannitol Buffer pH 7,2-7,4 and processed as described above for the cells expressing the GABAA γ1 subunit-containing receptors.
Assays were incubated to equilibrium for 1 hour at 4° C, and harvested onto GF/C uni-filters (Packard) by filtration using a Packard harvester and washing with ice-cold wash buffer (50 mM Tris; pH 7.5). After anhydrousing, filter-retained radioactivity was detected by liquid scintillation counting. Ki values were calculated using Excel-Fit (Microsoft) and are the means of two determinations.

| SMILES | Ki [1] [nM] | Ki [2] [nM] | γ2/γ1 Selectivity Ratio [2] | LogSel [2] | Ki ([2]; HEK293F cell membranes, [3H]Flumazenil 1 nM, mean of two determinations, read-out: Ki h-GABAA α1β3γ2) [nM] |
| --- | --- | --- | --- | --- | --- |
| Cc1nc2n(n1)-c1sc3c(c1C(c1c(F)cccc1F)=N[C@H]2C)C[C@@H](C(F)F)C3 [Example 16, (7S,13R)-13-(difluoromethyl)-9-(2,6-difluorophenyl)-4,7-dimethyl-16-thia-2,3,5,8-tetrazatetracyclo [8.6.0.02,6.011,15]hexadeca-1(10),3,5,8,11(15)-pentaene] | 1 | 448 | 191.1 | 2.28 | – |
| Cc1cnc2n1-c1sc3c(c1C(c1c(F)cccc1F)=N[C@H]2C)C[C@@H](C(F)F)C3 [Example 20, (7S,13R)-13-(difluoromethyl)-9-(2,6-difluorophenyl)-3,7-dimethyl-16-thia-2,5,8-triazatetracyclo [8.6.0.02,6.011,15]hexadeca-1(10),3,5,8,11(15)-pentaene] | 3.6 | 191 | 53.4 | 1.73 | – |
| Cc1nnc2n1-c1sc3c(c1C(c1c(F)cccc1F)=N[C@H]2C)C[C@@H](C(F)F)C3 [Example 5, (7S,13R)-13-(difluoromethyl)-9-(2,6-difluorophenyl)-3,7-dimethyl-16-thia-2,4,5,8-tetrazatetracyclo [8.6.0.02,6.011,15]hexadeca-1(10),3,5,8,11(15)-pentaene] | 1.2 | 228 | 66.5 | 1.82 | – |
| Cc1nnc2n1-c1sc3c(c1C(c1c(F)cccc1F)=N[C@H]2C)C[C@@H](C)C3 [Example 15, (7S,13R)-9-(2,6-difluorophenyl)-3,7,13-trimethyl-16-thia-2,4,5,8-tetrazatetracyclo [8.6.0.02,6.011,15]hexadeca-1(10),3,5,8,11(15)-pentaene] | 1.4 | 101 | 16.1 | 1.21 | – |
| C[C@@H]1N=C(c2c(F)cccc2F)c2c(sc3c2C[C@@H](C(F)F)C3)-n2c(CO)cnc21 [Example 21, [(7S,13R)-13-(difluoromethyl)-9-(2,6-difluorophenyl)-7-methyl-16-thia-2,5,8-triazatetracyclo [8.6.0.02,6.011,15]hexadeca-1(10),3,5,8,11(15)-pentaen-3-yl]methanol] | 4.7 | 606 | 127.6 | 2.11 | – |
| Cc1nnc2n1-c1sc3c(c1C(c1c(F)cccc1Cl)=NC2)C[C@@H](C#N)C3 [Example 1, (13R)-9-(2-chloro-6-fluoro-phenyl)-3-methyl-16-thia-2,4,5,8-tetrazatetracyclo [8.6.0.02,6.011,15]hexadeca-1(10),3,5,8,11(15)-pentaene-13-carbonitrile] | 8.8 | – | 49.0 | 1.69 | 1250 |
| Cc1nnc2n1-c1sc3c(c1C(c1c(F)cccc1Cl)=NC2)C[C@@H](C(F)F)C3 [Example 4, (13R)-9-(2-chloro-6-fluoro-phenyl)-13-(difluoromethyl)-3-methyl-16-thia-2,4,5,8-tetrazatetracyclo [8.6.0.02,6.011,15]hexadeca-1(10),3,5,8,11(15)-pentaene] | 1.2 | 343 | 74.8 | 1.87 | – |
